Assay results taken from patent publication US11203601B2, “Tricyclic compounds as glycogen synthase kinase 3 (GSK3) inhibitors and uses thereof” (The Broad Institute, Inc., priority 2017, dated 2021).

Columns and labels:
Assay in all cases: Carna kinome panel
Type in all cases: biochemical
Conditions in all cases: read-out: % Inhibition at 10 μM of the test compound
[1] = target: EGFR (Homo sapiens (Human), UniProt P00533)
[2] = target: MLK2_ Cascade (Homo sapiens (Human), UniProt Q02779)
[3] = target: YES(T348I) (Homo sapiens (Human), UniProt P07947, T348I)
[4] = target: FGR (Homo sapiens (Human), UniProt P09769)
[5] = target: NEK1 (Homo sapiens (Human), UniProt Q96PY6)
[6] = target: MLK3_Cascade (Homo sapiens (Human), UniProt Q16584)
[7] = target: KIT (Homo sapiens (Human), UniProt P10721)
[8] = target: MAP2K6_Cascade (Homo sapiens (Human), UniProt P52564)
[9] = target: TRKA (Homo sapiens (Human), UniProt P04629)
[10] = target: TYRO3 (Homo sapiens (Human), UniProt Q06418)
[11] = target: MAP2K4_Cascade (Homo sapiens (Human), UniProt P45985)
[12] = target: FGFR4(V550L) (Homo sapiens (Human), UniProt P22455, V550L)
[13] = target: PAK5 (Homo sapiens (Human), UniProt Q9P286)
[14] = target: FGFR1(V561M) (Homo sapiens (Human), UniProt P11362, V561M)
[15] = target: MINK (Homo sapiens (Human), UniProt Q8N4C8)
[16] = target: FGFR2 (Homo sapiens (Human), UniProt P21802)
[17] = target: CaMK1δ (Homo sapiens (Human), UniProt Q8IU85)
[18] = target: MAP4K2 (Homo sapiens (Human), UniProt Q12851)
[19] = target: PKD1 (Homo sapiens (Human), UniProt Q15139)
[20] = target: HIPK1 (Homo sapiens (Human), UniProt Q86Z02)
[21] = target: EPHB1 (Homo sapiens (Human), UniProt P54762)
[22] = target: ARG (Homo sapiens (Human), UniProt P42684)
[23] = target: PKACβ (Homo sapiens (Human), UniProt P22694)
[24] = target: TXK (Homo sapiens (Human), UniProt P42681)
[25] = target: RET(Y791F) (Homo sapiens (Human), UniProt P07949, Y791F)
[26] = target: RET (Homo sapiens (Human), UniProt P07949)
[27] = target: NEK4 (Homo sapiens (Human), UniProt P51957)
[28] = target: AurA/TPX2 (Homo sapiens (Human), UniProt O14965)
[29] = target: ROCK2 (Homo sapiens (Human), UniProt O75116)
[30] = target: CK2α1/β (Homo sapiens (Human), UniProt P68400)
Protocol: Briefly, a selection of compounds was screened against a panel of kinases at a single concentration of 10 μM. […] This was completed using one of two assays, depending on the kinase being examined: 1) IMAP Assay. A solution of 4× inhibitor, 4× substrate/ATP/metal solution and 2× kinase solution was prepared with assay buffer (20 mM HEPES, 0.01% Tween-20, 2 mM DTT, pH 7.4) and mixed, then incubated in 384-well black plates for 1 hour at room temperature. The IMAP binding reagent (IMAP Screening Express kit; Molecular Devices) was added to each well and incubated for 30 minutes. […] 2) Off-Chip Mobility Shift Assay (MSA). A solution of 4× inhibitor, 4× substrate/ATP/metal solution and 2× kinase solution was prepared with assay buffer (20 mM HEPES, 0.01% Triton X-100, 2 mM DTT, pH 7.5) and mixed, then incubated in 384-well plates for 1 or 5 hours depending on the kinase, at room temperature. Termination buffer (QuickScout Screening assist MSA; Carna Biosciences) was added to each well. The entire reaction mixture was then applied to a LabChip3000 system (Caliper Life Science), and the product and substrate peptide peaks were separated and quantified. […] The entire reaction mixture was then applied to a LabChip3000 system (Caliper Life Science), and the product and substrate peptide peaks were separated and quantified.

[31] = target: RON (Homo sapiens (Human), UniProt Q04912)
[32] = target: ALK(L1196M) (Homo sapiens (Human), UniProt Q9UM73, L1196M)
[33] = target: DYRK1A (Homo sapiens (Human), UniProt Q13627)
[34] = target: KIT(V560G) (Homo sapiens (Human), UniProt P10721, V560G)
[35] = target: JAK1 (Homo sapiens (Human), UniProt P23458)
[36] = target: FER (Homo sapiens (Human), UniProt P16591)
[37] = target: ALK(R1275Q) (Homo sapiens (Human), UniProt Q9UM73, R1275Q)
[38] = target: BRSK1 (Homo sapiens (Human), UniProt Q8TDC3)
[39] = target: EGFR(T790M) (Homo sapiens (Human), UniProt P00533, T790M)
[40] = target: SRM (Homo sapiens (Human), UniProt Q9H3Y6)
Chain of SRM (Q9H3Y6 whole entry): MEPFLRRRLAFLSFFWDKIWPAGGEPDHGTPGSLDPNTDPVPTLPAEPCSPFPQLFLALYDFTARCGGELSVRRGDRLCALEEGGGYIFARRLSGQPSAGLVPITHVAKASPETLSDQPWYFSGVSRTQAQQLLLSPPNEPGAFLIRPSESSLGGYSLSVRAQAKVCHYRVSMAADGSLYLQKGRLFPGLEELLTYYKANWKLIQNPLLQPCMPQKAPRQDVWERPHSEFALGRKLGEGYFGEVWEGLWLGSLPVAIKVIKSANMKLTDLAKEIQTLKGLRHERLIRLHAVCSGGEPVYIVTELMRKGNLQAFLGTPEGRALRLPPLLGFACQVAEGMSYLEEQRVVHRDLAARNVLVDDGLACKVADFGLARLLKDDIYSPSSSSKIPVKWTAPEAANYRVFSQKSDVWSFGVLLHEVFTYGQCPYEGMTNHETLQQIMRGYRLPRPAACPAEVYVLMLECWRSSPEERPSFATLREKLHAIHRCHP

Chain of CaMK1δ (Q8IU85 whole entry): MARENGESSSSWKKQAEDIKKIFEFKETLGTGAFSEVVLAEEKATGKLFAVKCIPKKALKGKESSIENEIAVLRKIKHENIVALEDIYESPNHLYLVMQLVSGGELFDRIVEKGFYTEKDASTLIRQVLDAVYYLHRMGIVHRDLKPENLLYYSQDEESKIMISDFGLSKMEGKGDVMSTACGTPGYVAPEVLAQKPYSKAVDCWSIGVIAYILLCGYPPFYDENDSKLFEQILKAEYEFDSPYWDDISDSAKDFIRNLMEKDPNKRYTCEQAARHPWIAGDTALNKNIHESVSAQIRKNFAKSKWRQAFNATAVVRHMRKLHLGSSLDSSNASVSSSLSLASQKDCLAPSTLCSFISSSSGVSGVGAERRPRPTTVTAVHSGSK
Chain of RET(Y791F) (P07949 29-1114 Y791F): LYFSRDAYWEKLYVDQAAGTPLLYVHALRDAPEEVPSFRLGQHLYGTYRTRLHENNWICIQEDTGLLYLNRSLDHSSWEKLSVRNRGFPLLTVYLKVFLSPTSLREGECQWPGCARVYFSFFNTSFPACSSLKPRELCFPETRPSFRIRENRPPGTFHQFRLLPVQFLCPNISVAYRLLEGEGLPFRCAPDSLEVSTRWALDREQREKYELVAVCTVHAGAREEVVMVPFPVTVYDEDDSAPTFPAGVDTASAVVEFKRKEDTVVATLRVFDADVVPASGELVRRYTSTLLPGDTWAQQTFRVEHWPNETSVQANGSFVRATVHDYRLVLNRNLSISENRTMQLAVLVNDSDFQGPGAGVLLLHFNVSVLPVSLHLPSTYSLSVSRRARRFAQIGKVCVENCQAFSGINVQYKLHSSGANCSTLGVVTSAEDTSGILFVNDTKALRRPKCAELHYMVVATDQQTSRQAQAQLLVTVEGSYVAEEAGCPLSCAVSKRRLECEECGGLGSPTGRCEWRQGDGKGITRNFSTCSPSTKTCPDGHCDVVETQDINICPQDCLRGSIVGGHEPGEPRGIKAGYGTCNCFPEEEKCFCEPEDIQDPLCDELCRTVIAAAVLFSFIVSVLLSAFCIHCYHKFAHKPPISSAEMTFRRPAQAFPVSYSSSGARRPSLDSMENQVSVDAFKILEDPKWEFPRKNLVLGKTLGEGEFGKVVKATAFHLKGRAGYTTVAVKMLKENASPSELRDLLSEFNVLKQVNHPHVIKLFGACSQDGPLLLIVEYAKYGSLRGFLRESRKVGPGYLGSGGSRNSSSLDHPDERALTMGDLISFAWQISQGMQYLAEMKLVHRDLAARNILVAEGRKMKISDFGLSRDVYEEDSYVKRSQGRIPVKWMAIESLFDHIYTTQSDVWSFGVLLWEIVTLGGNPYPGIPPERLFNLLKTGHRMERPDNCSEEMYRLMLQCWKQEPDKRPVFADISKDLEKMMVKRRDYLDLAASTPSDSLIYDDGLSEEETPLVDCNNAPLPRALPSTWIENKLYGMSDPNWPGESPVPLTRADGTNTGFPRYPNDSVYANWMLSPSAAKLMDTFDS
Chain of FGFR1(V561M) (P11362 22-822 V561M): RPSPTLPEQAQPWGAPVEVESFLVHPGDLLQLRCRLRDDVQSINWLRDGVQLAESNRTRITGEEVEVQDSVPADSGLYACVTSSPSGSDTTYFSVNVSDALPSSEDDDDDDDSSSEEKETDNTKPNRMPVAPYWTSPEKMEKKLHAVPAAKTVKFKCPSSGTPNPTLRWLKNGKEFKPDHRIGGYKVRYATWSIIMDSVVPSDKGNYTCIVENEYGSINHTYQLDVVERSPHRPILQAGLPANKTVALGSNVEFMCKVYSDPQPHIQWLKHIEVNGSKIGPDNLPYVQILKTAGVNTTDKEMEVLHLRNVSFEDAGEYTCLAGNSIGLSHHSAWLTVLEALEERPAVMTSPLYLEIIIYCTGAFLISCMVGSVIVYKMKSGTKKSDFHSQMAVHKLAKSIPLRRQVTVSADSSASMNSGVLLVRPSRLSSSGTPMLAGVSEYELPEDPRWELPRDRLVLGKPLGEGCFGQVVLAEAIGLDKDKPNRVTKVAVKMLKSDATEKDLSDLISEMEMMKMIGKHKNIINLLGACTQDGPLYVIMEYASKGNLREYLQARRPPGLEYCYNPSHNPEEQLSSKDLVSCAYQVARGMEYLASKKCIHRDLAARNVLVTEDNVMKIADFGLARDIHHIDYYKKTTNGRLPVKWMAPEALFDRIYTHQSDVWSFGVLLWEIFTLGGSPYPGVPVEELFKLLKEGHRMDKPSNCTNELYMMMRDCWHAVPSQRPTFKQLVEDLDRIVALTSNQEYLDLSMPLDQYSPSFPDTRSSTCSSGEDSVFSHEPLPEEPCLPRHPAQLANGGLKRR
Chain of RET (P07949 29-1114): as the sequence (P07949 29-1114 Y791F) above, with F763Y counted along it
Chain of CK2α1/β (P68400 whole entry, looked up): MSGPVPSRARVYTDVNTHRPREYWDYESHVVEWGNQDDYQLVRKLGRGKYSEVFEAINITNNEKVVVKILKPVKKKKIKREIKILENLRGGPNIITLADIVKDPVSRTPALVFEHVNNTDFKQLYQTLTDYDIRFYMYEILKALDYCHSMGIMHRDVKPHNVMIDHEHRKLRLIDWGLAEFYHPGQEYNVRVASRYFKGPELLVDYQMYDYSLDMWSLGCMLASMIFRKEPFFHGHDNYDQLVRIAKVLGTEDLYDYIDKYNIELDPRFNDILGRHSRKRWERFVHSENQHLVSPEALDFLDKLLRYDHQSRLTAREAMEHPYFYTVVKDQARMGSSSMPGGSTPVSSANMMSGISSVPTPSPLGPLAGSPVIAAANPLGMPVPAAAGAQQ
Chain of CK2α1/β (P67870 whole entry partner, looked up): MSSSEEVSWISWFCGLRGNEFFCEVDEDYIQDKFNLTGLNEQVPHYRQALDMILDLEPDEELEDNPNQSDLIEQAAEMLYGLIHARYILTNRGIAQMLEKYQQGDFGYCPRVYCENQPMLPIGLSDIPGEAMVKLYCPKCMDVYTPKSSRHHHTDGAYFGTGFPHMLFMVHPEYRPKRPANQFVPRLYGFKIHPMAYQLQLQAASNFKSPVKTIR
Chain of FER (P16591 whole entry): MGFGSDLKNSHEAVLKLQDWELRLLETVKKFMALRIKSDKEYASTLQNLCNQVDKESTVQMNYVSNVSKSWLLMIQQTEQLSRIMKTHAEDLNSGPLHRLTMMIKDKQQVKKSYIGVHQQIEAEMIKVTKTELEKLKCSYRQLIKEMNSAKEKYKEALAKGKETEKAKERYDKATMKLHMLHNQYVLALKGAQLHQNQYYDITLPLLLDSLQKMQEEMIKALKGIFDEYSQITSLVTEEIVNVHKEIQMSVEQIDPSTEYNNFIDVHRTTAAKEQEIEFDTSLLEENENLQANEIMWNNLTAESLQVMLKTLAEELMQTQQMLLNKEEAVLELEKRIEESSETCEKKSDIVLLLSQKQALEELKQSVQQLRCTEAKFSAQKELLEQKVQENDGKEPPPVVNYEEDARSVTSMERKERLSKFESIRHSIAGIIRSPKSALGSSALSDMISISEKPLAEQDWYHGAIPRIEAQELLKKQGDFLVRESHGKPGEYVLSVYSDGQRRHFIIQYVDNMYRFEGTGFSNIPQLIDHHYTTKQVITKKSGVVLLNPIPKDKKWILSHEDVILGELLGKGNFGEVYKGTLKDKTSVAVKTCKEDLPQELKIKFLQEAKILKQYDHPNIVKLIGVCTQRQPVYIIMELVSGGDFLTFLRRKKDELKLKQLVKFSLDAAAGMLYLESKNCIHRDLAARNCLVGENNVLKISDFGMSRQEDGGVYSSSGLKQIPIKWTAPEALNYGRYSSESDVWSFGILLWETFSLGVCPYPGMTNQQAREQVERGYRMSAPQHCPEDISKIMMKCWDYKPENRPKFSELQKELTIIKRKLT
Chain of PAK5 (Q9P286 whole entry): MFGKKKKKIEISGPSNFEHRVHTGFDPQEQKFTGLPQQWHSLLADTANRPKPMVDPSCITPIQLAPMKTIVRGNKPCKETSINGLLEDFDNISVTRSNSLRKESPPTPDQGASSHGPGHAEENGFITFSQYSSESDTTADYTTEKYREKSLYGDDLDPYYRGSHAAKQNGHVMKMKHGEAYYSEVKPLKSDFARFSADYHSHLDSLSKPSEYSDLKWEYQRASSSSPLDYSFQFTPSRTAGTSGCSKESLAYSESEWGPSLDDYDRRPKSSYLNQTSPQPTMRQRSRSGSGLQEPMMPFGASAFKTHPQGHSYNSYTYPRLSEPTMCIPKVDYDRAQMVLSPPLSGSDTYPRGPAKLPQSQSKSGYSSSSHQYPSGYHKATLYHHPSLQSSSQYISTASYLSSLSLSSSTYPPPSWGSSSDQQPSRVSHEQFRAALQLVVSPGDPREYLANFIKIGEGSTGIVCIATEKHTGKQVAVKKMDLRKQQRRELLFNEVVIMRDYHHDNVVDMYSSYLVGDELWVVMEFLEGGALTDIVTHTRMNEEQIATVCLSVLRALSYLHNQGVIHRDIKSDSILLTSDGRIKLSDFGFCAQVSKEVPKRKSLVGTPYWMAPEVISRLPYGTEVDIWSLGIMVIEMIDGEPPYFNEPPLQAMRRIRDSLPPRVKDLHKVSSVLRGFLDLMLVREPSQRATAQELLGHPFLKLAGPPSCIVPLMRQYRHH

## CCC1(c2ccccc2)C2=C(CC(C)(C)CC2=O)Nc2ncsc21 (stereo not shown) [Compound 1, 9-Ethyl-6,6-dimethyl-9-phenyl-5,6,7,9-tetrahydrothiazolo[4,5-b]quinolin-8(4H)-one]
[1]
  inhibition at 10 µM: 21.2%
[2]
  inhibition at 10 µM: 16.1%
[3]
  inhibition at 10 µM: 13.5%
[4]
  inhibition at 10 µM: 10.6%
[5]
  inhibition at 10 µM: 7.5%
[6]
  inhibition at 10 µM: 7.3%
[7]
  inhibition at 10 µM: 7.1%
[8]
  inhibition at 10 µM: 5.6%
[9]
  inhibition at 10 µM: 5.4%
[10]
  inhibition at 10 µM: 3.8%
[11]
  inhibition at 10 µM: 3.7%
[12]
  inhibition at 10 µM: 3.3%
[13]
  inhibition at 10 µM: 2.9%
[14]
  inhibition at 10 µM: 2.6%
[15]
  inhibition at 10 µM: 1.5%
[16]
  inhibition at 10 µM: 1.4%
[17]
  inhibition at 10 µM: 1.3%
[18]
  inhibition at 10 µM: 1.1%
[19]
  inhibition at 10 µM: 1%
[20]
  inhibition at 10 µM: 0.3%
[21]
  inhibition at 10 µM: -0.4%
[22]
  inhibition at 10 µM: -0.6%
[23]
  inhibition at 10 µM: -0.8%
[24]
  inhibition at 10 µM: -1.3%
[25]
  inhibition at 10 µM: -1.6%
[26]
  inhibition at 10 µM: -1.9%
[27]
  inhibition at 10 µM: -2.5%
[28]
  inhibition at 10 µM: -2.7%
[29]
  inhibition at 10 µM: -3.1%
[30]
  inhibition at 10 µM: -3.7%
[31]
  inhibition at 10 µM: -3.9%
[32]
  inhibition at 10 µM: -5.2%
[33]
  inhibition at 10 µM: -5.8%
[34]
  inhibition at 10 µM: -5.8%
[35]
  inhibition at 10 µM: -6.4%
[36]
  inhibition at 10 µM: -7.5%
[37]
  inhibition at 10 µM: -8%
[38]
  inhibition at 10 µM: -12.9%
[39]
  inhibition at 10 µM: -13.8%
[40]
  inhibition at 10 µM: -15.1%
